Measurements published in patent publication US20240317735A1, “HYDROISOQUINOLINE OR HYDRONAPHTHYRIDINE COMPOUNDS FOR THE TREATMENT OF AUTOIMMUNE DISEASE” (Hoffmann-La Roche Inc., priority 2020, published 2024).
pIC50: −log10 of the molar value.

Experiments:
hERG channel = molecular target: T1, hERG channel (Homo sapiens, UniProt Q12809); assay: hERG channel inhibition assay (patch-clamp, CHOhERG cells); format: cell-based; conditions: for pIC50 / IC20: CHOhERG cells, whole-cell patch-clamp; for IC20: human, CHO cells stably expressing hERG (CHOhERG); for hERG IC20/TLR7 IC50 / hERG IC20/TLR8 IC50 / hERG IC20/TLR9 IC50: safety ratio; for hERG IC20/TLR7 IC50: hERG IC20 over HEK/hTLR7 IC50; for hERG IC20/TLR8 IC50: hERG IC20 over HEK/hTLR8 IC50; for hERG IC20/TLR9 IC50: hERG IC20 over HEK/hTLR9 IC50
T1 construct: expressed in transfected cells; host or cells: CHO (CHOhERG)
Method: The hERG K^+ channels were cloned in humans and stably expressed in a CHO (Chinese hamster ovary) cell line. CHOhERG cells were used for patch-clamp (voltage-clamp, whole-cell) experiments. Cells were stimulated by a voltage pattern to activate hERG channels and conduct IKhERG currents (rapid delayed outward rectifier potassium current of the hERG channel). After the cells were stabilized for a few minutes, the amplitude and kinetics of IKhERG were recorded at a stimulation frequency of 0.1 Hz (6 bpm). Thereafter, the test compound was added to the preparation at increasing concentrations. For each concentration, an attempt was made to reach a steady-state effect, usually, this was achieved within 3-10 min at which time the next highest concentration was applied. The amplitude and kinetics of IKhERG are recorded in each concentration of the drug which were compared to the control values (taken as 100%). (references: Redfern W S, Carlsson L, Davis A S, Lynch W G, MacKenzie I, Palethorpe S, Siegl P K, Strang I, Sullivan A T, Wallis R, Camm A J, Hammond T G. 2003; Relationships between preclinical cardiac electrophysiology, clinical QT interval prolongation and torsade de pointes for a broad range of drugs: evidence for a provisional safety margin in drug development. Cardiovasc. Res. 58:32-45, Sanguinetti MC, Tristani-Firouzi M. 2006; hERG potassium channels and cardiac arrhythmia. Nature 440:463-469, Webster R, Leishman D, Walker D. 2002; Towards a drug concentration effect relationship for QT prolongation and torsades de pointes. Curr. Opin. Drug Discov. Devel. 5:116-26).

TLR9 = molecular target: T2, TLR9 (Homo sapiens, UniProt Q9NR96); assay: HEK293-Blue-hTLR-9 cells assay (SEAP reporter, ODN2006 stimulation); format: cell-based; set-up: host or cells: HEK293 (HEK-Blue hTLR9); conditions: HEK293-Blue-hTLR9 cells, ODN2006, 20 hrs; read-out: HEK/hTLR9 IC50
T2 sequence (Q9NR96 26-1032): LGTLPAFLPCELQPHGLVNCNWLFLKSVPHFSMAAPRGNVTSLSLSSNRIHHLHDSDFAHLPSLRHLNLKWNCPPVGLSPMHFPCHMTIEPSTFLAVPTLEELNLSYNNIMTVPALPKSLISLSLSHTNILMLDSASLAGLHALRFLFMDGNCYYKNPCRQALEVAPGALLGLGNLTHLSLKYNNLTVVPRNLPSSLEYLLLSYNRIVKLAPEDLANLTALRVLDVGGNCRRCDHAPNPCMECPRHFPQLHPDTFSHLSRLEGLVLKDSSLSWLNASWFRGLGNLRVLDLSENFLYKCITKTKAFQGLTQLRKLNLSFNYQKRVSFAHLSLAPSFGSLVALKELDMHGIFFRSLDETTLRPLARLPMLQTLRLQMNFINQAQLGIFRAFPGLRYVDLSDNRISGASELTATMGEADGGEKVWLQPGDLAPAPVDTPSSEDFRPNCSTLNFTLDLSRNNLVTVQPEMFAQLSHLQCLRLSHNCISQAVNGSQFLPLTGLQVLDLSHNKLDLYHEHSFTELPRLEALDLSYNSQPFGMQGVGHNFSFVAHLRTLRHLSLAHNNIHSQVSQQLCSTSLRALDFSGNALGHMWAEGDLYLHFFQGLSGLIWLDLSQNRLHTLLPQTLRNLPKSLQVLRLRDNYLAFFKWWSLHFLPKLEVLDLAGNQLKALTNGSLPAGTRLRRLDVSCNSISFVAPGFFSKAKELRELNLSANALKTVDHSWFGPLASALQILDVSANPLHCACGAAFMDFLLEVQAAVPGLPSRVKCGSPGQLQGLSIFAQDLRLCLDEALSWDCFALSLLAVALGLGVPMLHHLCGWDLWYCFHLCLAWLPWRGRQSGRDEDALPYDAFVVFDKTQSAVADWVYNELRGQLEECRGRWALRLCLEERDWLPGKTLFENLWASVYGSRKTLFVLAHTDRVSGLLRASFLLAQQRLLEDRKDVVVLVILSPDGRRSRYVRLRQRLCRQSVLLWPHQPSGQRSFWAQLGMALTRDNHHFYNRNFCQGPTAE
Outline: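 Antagonist format: cells in DMEM/10% FBS exposed to serially diluted compound (1% DMSO) plus ODN2006 stimulation for 20 h at 37°C. Supernatant SEAP measured with QUANTI-Blue substrate, 2 h at 37°C, absorbance 620–655 nm.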

T1 sequence (Q12809 whole entry): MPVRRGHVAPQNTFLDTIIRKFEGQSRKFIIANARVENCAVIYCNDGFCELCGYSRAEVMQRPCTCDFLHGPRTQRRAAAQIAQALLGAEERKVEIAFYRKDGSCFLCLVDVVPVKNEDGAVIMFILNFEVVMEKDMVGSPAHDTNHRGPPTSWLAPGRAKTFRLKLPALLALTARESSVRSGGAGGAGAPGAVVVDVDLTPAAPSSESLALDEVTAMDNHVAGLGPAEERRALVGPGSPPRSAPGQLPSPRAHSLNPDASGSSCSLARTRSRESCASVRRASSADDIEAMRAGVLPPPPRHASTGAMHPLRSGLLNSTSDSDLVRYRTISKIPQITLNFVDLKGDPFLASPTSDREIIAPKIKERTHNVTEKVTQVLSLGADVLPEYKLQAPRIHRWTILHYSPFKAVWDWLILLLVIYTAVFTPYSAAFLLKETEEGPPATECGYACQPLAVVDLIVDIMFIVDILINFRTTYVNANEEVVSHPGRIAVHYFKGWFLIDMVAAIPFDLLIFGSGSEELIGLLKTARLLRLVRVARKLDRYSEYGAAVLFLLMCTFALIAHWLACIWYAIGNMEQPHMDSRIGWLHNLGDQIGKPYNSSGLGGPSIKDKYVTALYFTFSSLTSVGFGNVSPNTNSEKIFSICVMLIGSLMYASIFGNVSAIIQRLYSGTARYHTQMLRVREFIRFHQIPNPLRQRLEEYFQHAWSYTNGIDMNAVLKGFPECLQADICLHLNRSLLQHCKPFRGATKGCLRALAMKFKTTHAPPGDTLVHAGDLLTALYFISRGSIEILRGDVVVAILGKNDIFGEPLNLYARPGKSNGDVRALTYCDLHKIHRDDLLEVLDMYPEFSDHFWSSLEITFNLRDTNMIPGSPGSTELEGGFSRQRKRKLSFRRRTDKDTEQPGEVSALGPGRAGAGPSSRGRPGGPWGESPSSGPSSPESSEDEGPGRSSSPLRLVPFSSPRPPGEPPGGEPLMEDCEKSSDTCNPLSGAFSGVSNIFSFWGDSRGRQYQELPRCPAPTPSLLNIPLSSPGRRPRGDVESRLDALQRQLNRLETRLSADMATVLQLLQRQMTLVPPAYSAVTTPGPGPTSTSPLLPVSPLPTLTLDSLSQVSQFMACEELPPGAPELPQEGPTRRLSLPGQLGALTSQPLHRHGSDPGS

SMILES	pIC50 (hERG channel)	IC20 (hERG channel)	hERG IC20/TLR7 IC50 (hERG channel)	hERG IC20/TLR8 IC50 (hERG channel)	hERG IC20/TLR9 IC50 (hERG channel)	pIC50 (TLR9)
Cc1cc(N2Cc3cnc(OCCN4CCNCC4)cc3[C@@H](C)C2)c2cnn(C)c2n1 [Example 77, (4R)-2-(1,6-dimethylpyrazolo[3,4-b]pyridin-4-yl)-4-methyl-6-(2-piperazin-1-ylethoxy)-3,4-dihydro-1H-2,7-naphthyridine]	< 4.70	> 10 µM	>526.3	>625.0	>69.4	6.84
Cc1cc(N2Cc3cnc(N4CC[C@@H](N)[C@H](F)C4)cc3[C@@H](C)C2)c2cnn(C)c2n1 [Example 80, (3R,4R)-3-fluoro-1-[(5R)-7-(1,6-dimethylpyrazolo[3,4-b]pyridin-4-yl)-5-methyl-6,8-dihydro-5H-2,7-naphthyridin-3-yl]piperidin-4-amine]	< 4.70	> 10 µM	>833.3	>294.1	>137.0	7.14
